Measured values as given in patent publication EP0840727B1, “3-HYDROXY-2(1H)-[…] AGENTS” (priority 1995, dated 1997).
Marks after values point to notes of the source that are not given here.

Legend:
Solubility in water = type: physicochemical; conditions: in words
[1] = Promoting excretion of U(VI) in mice by injected ligand; type: in vivo; conditions: U(VI), ligand 30 mmol.kg-1 i.p at 3 to 5 min after actinide i.v., kill at 24 h
Excerpt: (§1) Animal studies were completed using methods detailed in Radiation Protection Dosimetry, in press, P. W. Durbin et al., "In Vivo Chelation of Am(III), Pu(IV), Np(V) and U(VI) in Mice by TREN-(Me-3,2-HOPO)"; Radiation Protection Dosimetry, 17, No. 1, 1989, p. 351, P. W. Durbin et al., "Removal of ^238Pu(IV) from Mice by Polycatechoylate, -Hydroxamate or -Hydroxypyridinonate Ligands"; Radiation Research, 99, 1984, p. 85, P. W. Durbin et al., "Specific Sequestering Agents for the Actinides ..."; Radiation Research, 99, 1984, p. 106, P. W. Durbin et al., "Removal of Pu and Am from Beagles and Mice ..."; Radiation Research, 81, 1980, p. 170, R. D. Lloyd et al., and P. W. Durbin et al., "Specific Sequestering Agents for the Actinides ...". The foregoing articles are hereby incorporated by reference.
The ^232U was obtained from the Isotope Products Laboratory, Burbank, CA, and ^234,235U was obtained as U metal from long-held LBL storage. The two U sources were combined and dissolved in 6N HNO3, dried, and redissolved in 0.1 N HCl. The daughter radioactivities were removed by elution from a Dowex-50X4 column (22 cm length, 0.7 cm diameter, 1.5 mL·min^-1 flow rate) with 3.2N HCl. The U fractions (previously identified by a trial run with ^234,235U alone) were combined, dried, and redissolved in 0.14M NaCl at pH 5.5.
(§2) One of the comparative chelating agents TREN-Me-3,2-HOPO, was also tested for effectiveness in promoting excretion of ^241Am(III), ^237Np(V), and ^232U(VI) by injection into mice, as follows: Mice, in groups of five, each received an intravenous injection of (a) 1100 Bq of ^241AM(III) in 0.2 mL of citrate buffer, (b) 150 Bq of ^232UO2Cl2 plus 3.6 mg of ^235UO2Cl2 in 0.2 mL of saline, or (c) 200 Bq of ^237NpO2Cl (7.5 mg of ^237NpO2Cl) in 0.2 mL of saline. Three to five minutes later, […] of TREN-Me-3,2-HOPO was injected intraperitoneally in 0.5 mL of saline. The mice were killed 24 hours after the actinide injection, frozen, and dissected after partial thawing. The skeleton, soft tissues, and separated excreta were radioanalyzed by counting the ^241Am gamma rays, or the alpha particles emitted by ^237Np or ^232U (and its ingrowing daughters). Removal of those actinides from mice by injected TREN-Me-3,2-HOPO is summarized in Table 5, which also includes data for mice similarly treated with CaNa3-DTPA and for actinide-injected controls. […] The structure of Am(III)-TREN-Me-3,2-HOPO is considered to resemble that of the Gd(III) complexes (see example 20). Complexation of the fraction of Np(V) that is reduced in vivo to Np(IV) is considered to resemble that of Pu(IV). Complexation of U(VI) is considered to take place through binding to UO2^2+.

[2] = ligand 30 µmol kg^-1 ip at 1 h after iv ^238Pu(IV) citrate, kill at 24 h, reported previously, cited from earlier work
[3] = Promoting excretion of 237Np(V) in mice by injected ligand; type: in vivo; conditions: Np(V), ligand 30 mmol.kg-1 i.p at 3 to 5 min after actinide i.v., kill at 24 h
Excerpt: as §1
The ^237Np(V) was obtained from J. Bucher of the LBL Actinide Chemistry group as NpO2Cl in 0.1 M HCl. It was diluted to the desired radioactivity concentration in 0.14M NaCl and the pH was adjusted to about 4.5 with NaOH just before use.
as §2

[4] = Promoting excretion of 241Am(III) in mice by injected ligand; type: in vivo; conditions: Am(III), ligand 30 mmol.kg-1 i.p at 3 to 5 min after actinide i.v., kill at 24 h
Excerpt: as §1
Radionuclides used in the animal studies came from a variety of sources. However, they can be purchased commercially. The ^238Pu(IV) citrate and ^241Am(III) citrate solutions were prepared for animal injection by 8- to 10-fold dilution with 0.14M NaCl (pH 4) of concentrated stock solutions (0.08M sodium citrate buffer) that had been held in frozen storage at Lawrence Berkeley Laboratory (hereinafter LBL) for several years. [The ^238Pu(IV) was originally obtained from D. R. Atherton at the University of Utah Radiobiology Laboratory, Salt Lake City. The ^241Am(III) solution had been obtained many years earlier from the LBL Actinide Chemistry group.]
as §2

[5] = Fe(III) chelation; cited from earlier work

## CCCNC(=O)c1ccn(C)c(=O)c1O [3-hydroxy-1-methyl-4(1-propylcarbamoyl)-2(1H)-pyridinone]
Solubility in water
  solubility in water: very soluble in water

## O=C([O-])CN(CCN(CC(=O)[O-])CC(=O)[O-])CCN(CC(=O)[O-])CC(=O)[O-].[Ca+2].[Na+].[Na+].[Na+] [CaNa3-DTPA, reference compound]
[1]
  percent of injected actinide ± SD at 24 h, tissues: kidneys: 17 ± 2.8% of injected actinide
  percent of injected actinide ± SD at 24 h, tissues: skeleton: 19 ± 3.0% of injected actinide
  percent of injected actinide ± SD at 24 h, tissues: soft tissue: 2.2 ± 0.1% of injected actinide
  percent of injected actinide ± SD at 24 h, whole body: 38 ± 0.7% of injected actinide
[1]; feces, GI contents and urine combined
  percent of injected actinide at 24 h, combined excreta: 62^f percent of injected actinide
[1]; livers of some groups pooled
  percent of injected actinide ± SD at 24 h, tissues: liver: 1.0^c percent of injected actinide
[2]; pooled samples
  percent of injected ^238Pu at 24 h, excreta: feces and GI contents: 5.1% of injected ^238Pu
  percent of injected ^238Pu at 24 h, excreta: urine 0-24 h: 61% of injected ^238Pu
[2]
  percent of injected ^238Pu ± SD at 24 h, tissues: liver: 17 ± 4.0% of injected ^238Pu
  percent of injected ^238Pu ± SD at 24 h, tissues: skeleton: 12 ± 2.3% of injected ^238Pu
  percent of injected ^238Pu ± SD at 24 h, tissues: soft tissue: 3.5 ± 1.6% of injected ^238Pu
  percent of injected ^238Pu ± SD at 24 h, whole body: 33 ± 6.6% of injected ^238Pu
[3]
  percent of injected actinide ± SD at 24 h, tissues: liver: 14 ± 5.7% of injected actinide
  percent of injected actinide ± SD at 24 h, tissues: skeleton: 40 ± 4.4% of injected actinide
  percent of injected actinide ± SD at 24 h, tissues: soft tissue: 3.5 ± 0.9% of injected actinide
  percent of injected actinide ± SD at 24 h, whole body: 58 ± 8.0% of injected actinide
[3]; pooled
  percent of injected actinide at 24 h, excreta: feces and GI contents: 1.5% of injected actinide
  percent of injected actinide at 24 h, excreta: urine 0-24 h: 40% of injected actinide
  percent of injected actinide at 24 h, tissues: kidneys: 1.3% of injected actinide
[4]
  percent of injected actinide ± SD at 24 h, tissues: liver: 13 ± 1.5^d percent of injected actinide
  percent of injected actinide ± SD at 24 h, tissues: skeleton: 8.5 ± 0.9^d percent of injected actinide
  percent of injected actinide ± SD at 24 h, tissues: soft tissue: 1.9 ± 0.3^d percent of injected actinide
  percent of injected actinide ± SD at 24 h, whole body: 24 ± 1.3^d percent of injected actinide
[4]; pooled
  percent of injected actinide at 24 h, excreta: feces and GI contents: 8.0% of injected actinide
  percent of injected actinide at 24 h, excreta: urine 0-24 h: 68% of injected actinide
  percent of injected actinide at 24 h, tissues: kidneys: 0.4% of injected actinide

## O=C(NCc1cc(CNC(=O)c2cccc(=O)n2O)cc(CNC(=O)c2cccc(=O)n2O)c1)c1cccc(=O)n1O [ME-(1,2-HOPO)]
[2]; pooled samples
  percent of injected ^238Pu at 24 h, excreta: feces and GI contents: 43% of injected ^238Pu
  percent of injected ^238Pu at 24 h, excreta: urine 0-24 h: 9.6% of injected ^238Pu
  percent of injected ^238Pu at 24 h, tissues: kidneys: 1.8% of injected ^238Pu
[2]
  percent of injected ^238Pu ± SD at 24 h, tissues: liver: 18 ± 6.3^d percent of injected ^238Pu
  percent of injected ^238Pu ± SD at 24 h, tissues: skeleton: 17 ± 2.5% of injected ^238Pu
  percent of injected ^238Pu ± SD at 24 h, tissues: soft tissue: 10 ± 1.8% of injected ^238Pu
  percent of injected ^238Pu ± SD at 24 h, whole body: 47 ± 9.4% of injected ^238Pu

## O=C(N[C@H]1COC(=O)[C@@H](NC(=O)c2cccc(O)c2O)COC(=O)[C@@H](NC(=O)c2cccc(O)c2O)COC1=O)c1cccc(O)c1O [enterobacun]
[5]
  formation constant Kf: 10^49
  pM: 35.5
